US12492195B2, “Preparation method for and crystal form of 3-aryloxy-3-five-membered heteroaryl-propylamine compound” (Zhangzhou Pien Tze Huang Pharmaceutical Co., Ltd., priority 2020, dated 2025)
pIC50: −log10 of the molar value.

Legend:
TRPM8 = target: T1, TRPM8 (Homo sapiens, UniProt Q7Z2W7); test: Manual patch clamp detection on TRPM8 channel; assay type: cell-based; details: 20.00 μM, positive compound
T1 construct: expressed in transfected cells
Protocol: TRPM8 cells were cultured in a cell culture dish with a diameter of 35 mm, placed in an incubator in 5% CO2 at 37° C., and passaged at a ratio of 1:5 every 48 hours. The formula of medium was 90% DMEM (Invitrogen), 10% fetal bovine serum (Gibco), 2 mM L-glutamine, 50 μg/mL Hygromycin B (Invitrogen) and 5 μg/mL Blasticidine HCl (Invitrogen). Before electrophysiological patch clamp experiment, the cell culture medium was replaced with medium containing 1 μg/mL doxycycline for at least 16 hours to induce TRPM8 expression.
On the day of the experiment, the cell culture medium was aspirated, the cell were rinsed once with extracellular fluid, and then 0.25% Trypsin-EDTA (Invitrogen) solution was added, and digested at room temperature for 1-2 minutes. The digestion solution was aspirated, the cell were resuspended with extracellular fluid, and transferred to the experimental dish for electrophysiological recording for further experiment.
Preparation of menthol: 100.00 mM of DMSO stock solution of menthol was added to the extracellular solution, diluting 1000-fold to 100.00 μM of menthol solution.
Preparation of AMTB: 5 μL of DMSO stock solution (20.00 mM) of AMTB was added to 4995 μL of menthol solution (100.00 uM), diluting 1000-fold to obtain the final concentration of 20.00 μM AMTB to be tested.
Preparation of IC-1: 20.00 mM or 10.00 mM of stock solution of IC-1 was taken and added to the agonist solution of the corresponding channel, diluting 1000 or 2000-fold to the final concentration of 10.00 μM of […] solution to be tested.
(§1) HEK293 cells stably expressing TRP channels, the corresponding agonist-induced channel current was recorded by whole-cell patch clamp technique at room temperature. […] Clamp voltages and data recording were controlled and recorded by a computer using pClamp 11 software with the sampling frequency of 10 kHz and the filtering frequency of 2 kHz. […] After the current was evoked for more than 40 s and no attenuation was determined, the dosing process started. […]

TRPV1 = target: T2, TRPV1 (Homo sapiens, UniProt Q8NER1); test: Manual patch clamp detection on TRPV1 channel; assay type: cell-based; details: HEK293, Capsaicin-induced current
T2 construct: expressed in transfected cells
Protocol: TRPV1 cells were cultured in a cell culture dish with a diameter of 35 mm, placed in a 37° C., 5% CO2 incubator, and passaged at a ratio of 1:5 every 48 hours. Medium formula: 90% DMEM (Invitrogen), 10% Fetal bovine serum (Gibco). 2 mM L-glutamine, 50 μg/mL Hygromycin B (Invitrogen) and 5 μg/mL Blasticidine HCl (Invitrogen). Before electrophysiological patch clamp experiments, the cell culture medium was replaced with medium containing 1 μg/mL Doxycycline for at least 16 hours to induce the expression of TRPV1.
(§2) On the day of the experiment, the cell culture medium was aspirated, the cell were rinsed once with extracellular fluid, and then 0.25% Trypsin-EDTA (Invitrogen) solution was added, and digested at room temperature for 1-2 minutes. The digestion solution was aspirated, the cell were resuspended with extracellular fluid, and transferred to the experimental dish for electrophysiological recording for further experiment. […]
as §1

TRPA1 = target: T3, TRPA1 (Mus musculus, UniProt Q8BLA8); test: IonWorks Barracuda (IWB) automated patch clamp detection of TRPA1 inhibitory activity; assay type: cell-based; details: HEK293 cells stably expressing TRPA1, AITC-induced current
T3 construct: expressed in transfected cells
Protocol: IonWorks Barracuda (IWB) automated patch clamp detection was used as test method: HEK293 cells stably expressing TRPA1 were placed in the T175 culture flask with DMEM medium containing 15 μg/mL Blasticidin S HCl, 200 μg/mL Hygromycin B and 10% FBS, and cultured in an incubator in 5% CO2 at 37° C. When the cell density reached about 80%, the culture medium was removed, the residue was rinsed once with phosphate buffered saline (PBS) without calcium and magnesium. 3 mL of Trypsin was added to digest for 2 min, 7 mL of culture medium was added to terminate the digestion. The cells were collected to 15 mL centrifuge tube and centrifuged at 800 rpm for 3 min. After the supernatant was removed, the cells were added to appropriate volume of extracellular fluid for re-suspending, and the cell density was controlled at 2-3×10^6/mL for IWB experiment. The formulation of extracellular fluid (in mM) was 140 NaCl, 5 KCl, 1 MgCl2, 10 HEPES, 0.5 EGTA, 10 Glucose (pH 7.4); the formulation of intracellular fluid (in mM) was 140 CsCl, 10 HEPES, 5 EGTA, 0.1 CaCl2), 1 MgCl2 (pH 7.2). 28 mg/mL of amphotericin B was freshly prepared with DMSO on the day of experiment, and then final concentration of 0.1 mg/mL of that was prepared with intracellular fluid.
Population patch clamp (PPC) plate was used in IWB experiment. The entire detection process was automatically carried out by the instrument. […]
The record of data and the export of current amplitude measurement were carried out by IWB software (version 2.5.3, Molecular Devices Corporation. Union City, CA). No statistics was recorded for wells with sealing impedance lower than 20 MΩ. […] TRPA1 current amplitude was measured at ±100 mV. […] The dose-effect curve of compounds and IC50 were fitted and calculated by GraphPad Prism 5.02 (GraphPad Software, San Diego, CA).

SD rats = test: SNL model in rats, mechanical hyperalgesia test; assay type: in vivo; details: 100 mg/kg by gavage, 1 hour after administration
Protocol: Male SPF grade SD rats, weighed 150-180 g, were selected. Aseptic operation during surgery was performed. The animals were anesthetized with sodium pentobarbital (50 mg/kg, intraperitoneal injection). The surgical area of animal waist was shaved and the skin was disinfected three times with iodophor and 70% ethanol. After the skin was dried, the operation was started. Surgical knife was used to make a longitudinal incision at the back of the sacrum of the animal waist to expose the left paraspinal muscles, and distractor was used to separate muscle tissue to expose the spine. The left spinal nerves L5 and L6 were separated and ligated with a 6-0 silk thread, and the wound was sutured. […]
The animals were weighed to calculate the dosage. […] During the test, rapid paw withdrawal of animal was recorded as pain response. When the test fiber was removed from animal skin, the paw withdrawal of animal was also recorded as pain response. If animal moved or walked, the pain response was not recorded and the test was repeated. […]
Mechanical hyperalgesia was expressed as paw withdrawal threshold (PWT) in rat behavioral test, which was calculated with the following formula: 50% response threshold (g)=(10^(Xf+k))/10,000; • Xf=the final test fiber value used in the test; • k=table value; • =mean difference

C57 mice = test: hot plate pain model in mice; assay type: in vivo; details: 10 mg/kg intraperitoneal, hot plate 55° C.
Protocol: SPF-grade C57 male mice were placed at hot plate with constant 55±0.1° C. […] If the pain reaction of mice was observed, the mice were taken out immediately to prevent mice from scalding. […] Appropriate amount of test compounds were added into required volume of physiological saline and fully suspended, and the concentration of the drug compound was prepared as 1 mg/ml. The standard volume of administration to mice was 10 ml/kg (or 0.1 ml/10 g). The administration mode was intraperitoneal administration. […] The administration volume was 10 ml/kg. […] Hot plate observation indicator is the time latency of mice on the hot plate at 55±0.1° C. Measurement and recording were conducted at 3 h before administration and 15 min, 30 min, and 60 min after administration. Maximum possible effect (MPE) % was used to evaluate analgesic effect of each compound, i.e., MPE %=[(Post drug latency-baseline latency)/(30-baseline latency)]×100. MPE % at different time points was recorded. The higher the value of MPE % was, the stronger the analgesic effect of the compound was.

TRPV4 = target: T4, TRPV4 (Homo sapiens, UniProt Q9HBA0); test: Manual patch clamp detection on TRPV4 channel; assay type: cell-based; details: 40.00 μM, positive compound
T4 construct: expressed in transfected cells
Protocol: TRPV4 cells were cultured in a cell culture dish with a diameter of 35 mm, placed in an incubator in 5% CO2 at 37° C., and passaged at a ratio of 1:5 every 48 hours. The formula of medium was 90% DMEM (Invitrogen), 10% fetal bovine serum (Gibco), 2 mM L-glutamine, 50 μg/mL Hygromycin B (Invitrogen) and 5 μg/mL Blasticidine HCl (Invitrogen). Before electrophysiological patch clamp experiment, the cell culture medium was replaced with medium containing 1 μg/mL doxycycline for at least 16 hours to induce the expression of TRPV4.
as §2, §1

ICR mice = test: acetic acid writhing pain model in mice; assay type: in vivo; details: 10 mg/kg intragastric, acetic acid 1 h after administration
Protocol: Male ICR mice, weighed 22-25 g, were fasted but allowed to drink water freely for 2 h before administration. All ICR mice were weighed and grouped randomly, and the number of animals in each group was greater than 10. […] […] The drug was administrated intragastrically based on the weight of mice. 1.5% acetic acid solution (0.1 ml/10 g) was injected intraperitoneally 1 hour after administration, and the frequency of visceral pain in each group of mice within 30 min was observed. When concave abdomen, stretched trunk and hind paw, and high buttocks appeared, one number point was recorded. Finally, the number of appearance of the above phenomenon was counted within 30 minutes.

T3 sequence (Q8BLA8 whole entry): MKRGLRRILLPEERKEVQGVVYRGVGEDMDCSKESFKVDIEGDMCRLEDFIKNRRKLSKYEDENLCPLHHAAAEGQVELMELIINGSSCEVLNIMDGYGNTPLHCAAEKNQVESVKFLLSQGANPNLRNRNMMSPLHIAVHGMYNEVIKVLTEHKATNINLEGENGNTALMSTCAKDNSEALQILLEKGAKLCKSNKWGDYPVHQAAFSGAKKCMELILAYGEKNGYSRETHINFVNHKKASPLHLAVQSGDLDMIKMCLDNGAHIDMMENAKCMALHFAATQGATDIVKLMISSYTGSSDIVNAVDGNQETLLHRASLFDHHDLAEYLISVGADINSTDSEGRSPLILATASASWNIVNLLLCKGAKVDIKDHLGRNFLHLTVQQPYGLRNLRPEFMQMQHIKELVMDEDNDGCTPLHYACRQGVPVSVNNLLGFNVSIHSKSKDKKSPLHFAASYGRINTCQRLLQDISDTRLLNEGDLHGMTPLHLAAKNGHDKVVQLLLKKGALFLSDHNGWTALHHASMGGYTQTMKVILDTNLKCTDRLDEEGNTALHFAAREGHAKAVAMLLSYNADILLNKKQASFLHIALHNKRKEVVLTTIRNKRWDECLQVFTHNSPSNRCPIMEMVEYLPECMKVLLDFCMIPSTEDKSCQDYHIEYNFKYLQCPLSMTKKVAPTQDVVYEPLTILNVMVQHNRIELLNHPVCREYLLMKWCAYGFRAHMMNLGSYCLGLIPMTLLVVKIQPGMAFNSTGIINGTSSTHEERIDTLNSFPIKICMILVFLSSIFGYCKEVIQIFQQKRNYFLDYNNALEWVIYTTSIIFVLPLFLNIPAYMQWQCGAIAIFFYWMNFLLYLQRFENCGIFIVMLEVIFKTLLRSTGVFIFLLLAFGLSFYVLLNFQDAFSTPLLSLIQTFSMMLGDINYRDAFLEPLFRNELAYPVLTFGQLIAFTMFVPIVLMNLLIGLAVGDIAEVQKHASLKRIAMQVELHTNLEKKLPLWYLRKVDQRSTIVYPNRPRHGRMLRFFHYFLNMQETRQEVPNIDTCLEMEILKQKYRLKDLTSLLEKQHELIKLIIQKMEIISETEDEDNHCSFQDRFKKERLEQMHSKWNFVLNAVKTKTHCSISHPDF
T4 sequence (Q9HBA0 whole entry, species assumed): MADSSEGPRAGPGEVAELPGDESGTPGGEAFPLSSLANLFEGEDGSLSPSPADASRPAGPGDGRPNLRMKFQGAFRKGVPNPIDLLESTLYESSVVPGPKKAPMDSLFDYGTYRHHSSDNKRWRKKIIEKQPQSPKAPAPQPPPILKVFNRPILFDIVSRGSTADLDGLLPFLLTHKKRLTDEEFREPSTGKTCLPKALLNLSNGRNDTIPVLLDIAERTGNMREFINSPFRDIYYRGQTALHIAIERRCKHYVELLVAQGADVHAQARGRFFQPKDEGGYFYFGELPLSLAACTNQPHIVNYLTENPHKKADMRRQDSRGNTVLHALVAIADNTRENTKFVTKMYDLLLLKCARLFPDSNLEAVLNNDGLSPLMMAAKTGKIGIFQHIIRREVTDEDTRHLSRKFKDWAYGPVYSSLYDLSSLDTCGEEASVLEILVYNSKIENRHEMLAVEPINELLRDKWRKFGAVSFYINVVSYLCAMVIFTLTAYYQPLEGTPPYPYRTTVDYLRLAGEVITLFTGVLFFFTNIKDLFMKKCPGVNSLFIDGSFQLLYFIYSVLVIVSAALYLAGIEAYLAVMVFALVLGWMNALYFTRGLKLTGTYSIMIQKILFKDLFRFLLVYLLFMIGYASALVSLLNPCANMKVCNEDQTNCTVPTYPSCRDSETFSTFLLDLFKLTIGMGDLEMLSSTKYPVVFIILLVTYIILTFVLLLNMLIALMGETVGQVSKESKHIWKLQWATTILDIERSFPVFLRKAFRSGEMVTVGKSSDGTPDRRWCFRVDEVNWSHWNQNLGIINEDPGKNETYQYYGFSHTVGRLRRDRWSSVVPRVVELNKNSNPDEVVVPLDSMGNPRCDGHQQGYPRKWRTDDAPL
T2 sequence (Q8NER1 whole entry, species assumed): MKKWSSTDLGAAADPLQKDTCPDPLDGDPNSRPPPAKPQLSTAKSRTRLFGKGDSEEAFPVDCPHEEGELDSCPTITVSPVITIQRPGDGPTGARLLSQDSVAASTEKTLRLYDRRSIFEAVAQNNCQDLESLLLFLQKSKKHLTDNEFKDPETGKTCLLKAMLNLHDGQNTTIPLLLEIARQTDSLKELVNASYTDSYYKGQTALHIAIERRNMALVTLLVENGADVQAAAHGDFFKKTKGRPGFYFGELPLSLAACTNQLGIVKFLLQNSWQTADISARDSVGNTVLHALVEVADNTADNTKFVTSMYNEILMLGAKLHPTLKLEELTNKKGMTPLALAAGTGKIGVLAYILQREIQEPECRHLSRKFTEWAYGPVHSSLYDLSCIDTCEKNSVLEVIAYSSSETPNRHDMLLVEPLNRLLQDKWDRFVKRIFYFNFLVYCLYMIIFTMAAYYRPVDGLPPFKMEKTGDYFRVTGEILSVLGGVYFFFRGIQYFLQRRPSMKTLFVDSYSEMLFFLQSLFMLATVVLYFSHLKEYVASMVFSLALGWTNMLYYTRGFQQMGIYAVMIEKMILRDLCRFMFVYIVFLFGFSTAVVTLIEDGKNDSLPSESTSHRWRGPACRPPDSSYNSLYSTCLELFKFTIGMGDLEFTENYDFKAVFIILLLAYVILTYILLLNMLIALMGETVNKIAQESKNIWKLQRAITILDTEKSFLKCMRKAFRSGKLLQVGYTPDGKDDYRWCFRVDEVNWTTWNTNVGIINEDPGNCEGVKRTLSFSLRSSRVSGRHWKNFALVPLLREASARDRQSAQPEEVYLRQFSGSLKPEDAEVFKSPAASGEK
T1 sequence (Q7Z2W7 whole entry, species assumed): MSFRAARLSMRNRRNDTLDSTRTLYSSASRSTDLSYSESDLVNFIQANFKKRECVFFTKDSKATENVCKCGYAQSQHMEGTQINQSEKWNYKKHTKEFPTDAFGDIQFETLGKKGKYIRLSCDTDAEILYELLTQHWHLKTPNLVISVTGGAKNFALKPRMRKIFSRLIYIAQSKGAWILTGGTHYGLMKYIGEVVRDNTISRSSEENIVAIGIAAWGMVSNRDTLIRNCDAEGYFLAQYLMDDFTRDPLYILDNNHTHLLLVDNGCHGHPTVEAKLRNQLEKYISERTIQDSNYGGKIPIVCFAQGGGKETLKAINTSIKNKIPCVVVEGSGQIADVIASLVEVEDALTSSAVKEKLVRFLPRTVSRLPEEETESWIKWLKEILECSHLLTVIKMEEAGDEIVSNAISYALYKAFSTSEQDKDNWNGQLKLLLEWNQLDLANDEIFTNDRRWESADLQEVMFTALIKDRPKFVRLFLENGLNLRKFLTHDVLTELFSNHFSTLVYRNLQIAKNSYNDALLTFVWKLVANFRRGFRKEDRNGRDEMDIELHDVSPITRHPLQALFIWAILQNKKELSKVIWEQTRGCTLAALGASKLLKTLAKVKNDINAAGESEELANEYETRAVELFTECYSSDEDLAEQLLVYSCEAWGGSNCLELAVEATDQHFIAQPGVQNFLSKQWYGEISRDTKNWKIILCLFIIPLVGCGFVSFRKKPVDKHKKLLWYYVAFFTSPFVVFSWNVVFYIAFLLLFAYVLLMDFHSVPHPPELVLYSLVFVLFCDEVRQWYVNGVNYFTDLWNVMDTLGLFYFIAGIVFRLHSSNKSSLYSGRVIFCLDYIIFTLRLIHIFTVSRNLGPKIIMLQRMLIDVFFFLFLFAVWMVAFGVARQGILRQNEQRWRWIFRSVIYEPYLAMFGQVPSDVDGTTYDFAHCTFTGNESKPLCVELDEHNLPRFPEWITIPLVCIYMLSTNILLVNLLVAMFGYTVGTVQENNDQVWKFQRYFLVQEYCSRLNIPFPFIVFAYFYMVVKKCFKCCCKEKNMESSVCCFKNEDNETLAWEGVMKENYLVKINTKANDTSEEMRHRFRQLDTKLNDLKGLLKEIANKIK

Compound: Cc1cccc(COc2ccccc2C(=O)N(CCCN)Cc2cccs2)c1 [AMTB, reference compound]
- Inhibition % of TRPM8 current (TRPM8): over 90%

Compound: Oc1cc2c(cc1O)CN(C(=S)NCCc1ccc(Cl)cc1)CCC2 [Capsazepine, reference compound]
- inhibition at 10 µM (TRPV1): > 90%

Compound: CNCC[C@H](Oc1cccc2c1CCC2)c1ccccc1 [Compound C1]
- pIC50 (TRPA1): 4.30 to 4.70

Compound: NCC1(CC(=O)O)CCCCC1 [Gabapentin, reference compound]
- PWT (SD rats): 6.352 ± 1.897 g

Compound: NCC[C@H](Oc1cccc2ccoc12)c1cccs1 [IC-23, (S)-3-(benzofuran-7-yloxy)-3-(thiophen-2-yl)propan-1-amine]
- analgesic activity compared with the positive controls gabapentin and duloxetine (C57 mice): significantly stronger than that of 100 mg/kg of gabapentin
- analgesic effect (MPE %) compared with the saline control group (C57 mice; within 60 min): very potent analgesic effect

Compound: N.N.N.N.N.N.N.N.N.N.N.N.N.N.[Cl-].[Cl-].[Cl-].[Cl-].[Cl-].[Cl-].[O-2].[O-2].[Ru+3].[Ru+3].[Ru+4] [RR, Ruthenium Red, reference compound]
- Inhibition % of TRPV4 current (TRPV4): over 90%

Compound: CN1[C@H]2C[C@H](OC(=O)[C@H](CO)c3ccccc3)C[C@@H]1[C@@H](O)C2 [anisodamine, reference compound]
- frequency of writhing response within 30 min (ICR mice): 27 times
